# According to paper PMC8260592 (Scientific Reports, 2021):
# Entries after “also recorded” stand apart in the source; their conditions may differ.
# Experiments:
# [1] = system: AChE; conditions: ref 43; cited from earlier work
# [2] = biological target: T1, MAO-B (Homo sapiens, UniProt P27338); experiment: Reversibility of MAO-B inhibition by dialysis; format: biochemical
# T1 construct: purchased Sigma-Aldrich
# T1 sequence (P27338 1-520): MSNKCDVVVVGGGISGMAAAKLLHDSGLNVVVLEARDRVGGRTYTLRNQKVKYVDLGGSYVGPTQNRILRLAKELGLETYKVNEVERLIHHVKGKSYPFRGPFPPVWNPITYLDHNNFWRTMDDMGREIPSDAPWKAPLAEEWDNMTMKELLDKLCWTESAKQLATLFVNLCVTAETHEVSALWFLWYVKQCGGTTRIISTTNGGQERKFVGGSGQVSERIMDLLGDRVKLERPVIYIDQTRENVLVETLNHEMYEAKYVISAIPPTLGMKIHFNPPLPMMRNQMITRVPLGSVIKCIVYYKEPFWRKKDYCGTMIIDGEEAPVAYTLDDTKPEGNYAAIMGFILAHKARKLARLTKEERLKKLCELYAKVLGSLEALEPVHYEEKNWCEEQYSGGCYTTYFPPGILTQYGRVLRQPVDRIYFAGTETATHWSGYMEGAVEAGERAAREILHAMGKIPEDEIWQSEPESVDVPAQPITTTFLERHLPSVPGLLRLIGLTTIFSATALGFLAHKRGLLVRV
# Procedure: (§1) After preincubating three compounds or reference inhibitors with enzymes for 15 min, residual activities of undialyzed (AU) and dialyzed (AD) samples were expressed as percentages of those of non-inhibitor treated controls. Reversibilities were assessed using AU and AD values and compared with those of reference compounds.
# (§2) After preincubating the compounds with enzymes for 15 min, the mixtures were dialyzed for 6 h with two buffer changes. Results are the averages of duplicate or triplicate experiments.
# [3] = biological target: T2, BACE-1 (Homo sapiens, UniProt P56817); experiment: BACE-1 activity detection kit (fluorescence); format: biochemical; conditions: read-out: Residual activity at 10 µM (%) BACE-1
# T2 construct: purchased Sigma-Aldrich
# [4] = biological target: T3, AChE (Electrophorus electricus, UniProt O42275); experiment: Reversibility of AChE inhibition by dialysis; format: biochemical
# Procedure: as §1, §2
# [5] = biological target: T4, BChE (equine serum) (Equus caballus, UniProt P81908); experiment: biochemical
# T4 construct: BChE (equine serum); purchased Sigma-Aldrich; host or cells: equine serum
# Procedure: (§3) AChE and BChE inhibitory activities were measured after preincubating enzymes with inhibitors for 15 min before adding substrates (ATCI and BTCI, respectively) and DTNB. AChE activities were assayed as previously described, with slight modification[21],[22]. […] MAO-A and MAO-B activities were determined using a continuous spectrophotometric method, as described previously[23],[24]. […] Reaction rates are expressed as changes in absorbance per min. […]
# [6] = biological target: AChE (Type VI-S from Electrophorus electricus) (Electrophorus electricus, UniProt O42275); experiment: biochemical
# Procedure: as §3
# [7] = biological target: T1, MAO-B; experiment: biochemical
# Procedure: (§4) AChE and BChE inhibitory activities were measured after preincubating enzymes with inhibitors for 15 min before adding substrates (ATCI and BTCI, respectively) and DTNB. AChE activities were assayed as previously described, with slight modification[21],[22]. […] MAO-A and MAO-B activities were determined using a continuous spectrophotometric method, as described previously[23],[24]. […] Reaction rates are expressed as changes in absorbance per min.
# (§5) Inhibitory patterns and Ki values were determined using Lineweaver–Burk (LB) plots and secondary plots of LB slopes.
# [8] = biological target: T5, Recombinant human MAO-A (Homo sapiens, UniProt P21397); experiment: biochemical
# T5 construct: purchased Sigma-Aldrich
# T5 sequence (P21397 1-527): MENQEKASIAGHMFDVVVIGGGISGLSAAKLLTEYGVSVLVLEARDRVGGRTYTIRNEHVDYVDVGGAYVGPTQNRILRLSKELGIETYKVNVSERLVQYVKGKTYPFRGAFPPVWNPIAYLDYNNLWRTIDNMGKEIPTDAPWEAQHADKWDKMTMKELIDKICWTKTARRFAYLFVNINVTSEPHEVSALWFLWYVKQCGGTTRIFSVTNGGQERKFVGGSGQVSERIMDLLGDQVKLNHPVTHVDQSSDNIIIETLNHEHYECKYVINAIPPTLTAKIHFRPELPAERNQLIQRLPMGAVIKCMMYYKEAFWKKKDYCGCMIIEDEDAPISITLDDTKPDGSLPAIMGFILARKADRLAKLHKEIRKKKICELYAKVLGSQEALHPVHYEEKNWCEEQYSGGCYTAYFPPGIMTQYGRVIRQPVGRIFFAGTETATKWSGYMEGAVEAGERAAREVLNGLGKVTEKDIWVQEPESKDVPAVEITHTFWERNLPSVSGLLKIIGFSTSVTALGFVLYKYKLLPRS
# Procedure: as §4, §5
# [9] = system: human acute promyelocytic leukemia (HL-60) cells; experiment: Cytotoxicity test, CCK-8 assay; conditions: 50 µM, 24 h, CCK-8
# Procedure: (§6) Madin-Darby canine kidney (MDCK) cells and human acute promyelocytic leukemia (HL-60) cells were obtained from the Korean Cell Line Bank (Seoul, Korea). […] Cultures were maintained at 37 °C under 5% CO2, and media were changed every two days.
# (§7) Cell viabilities were determined using the CCK-8 assay. Briefly, MDCK cells or HL-60 cells were resuspended at 1 × 10^5 or 3 × 10^5 cells/mL and suspensions (100 µL) were added to wells of a 96-well plate and incubated in 5% CO2 atmosphere at 37 °C for 24 h. After incubation, 100 µL of each medium was treated with compounds at 1, 3, 10, 30, or 50 µM and incubated in 5% CO2 at 37 °C for 24 h. CCK-8 (10 µL/well) was then added to 100 µL aliquots from each cell and incubated 2–4 h. Absorbances were measured at 450 nm using a microplate reader (Versamax, Molecular Devices, San Jose, CA, USA).
# (§8) Both cell lines were treated with each compound (at 1, 3, 10, 30, or 50 µM) for 24 h. Culture supernatants were then removed and CCK-8 was added. […] Data are expressed as the means ± SDs of triplicate experiments.
# [10] = system: Madin-Darby canine kidney (MDCK) cells; experiment: Cytotoxicity test, CCK-8 assay; conditions: 50 µM, 24 h, CCK-8
# Procedure: as §6, §7, §8
# [11] = biological target: T3, AChE; experiment: Kinetics of AChE inhibition (Lineweaver-Burk and secondary plots); format: biochemical
# Procedure: as §5
# Substrate concentrations ranged from 0.05 to 1.0 mM. […] Initial reaction rates are expressed as increases in absorbance per min.
# [12] = system: MAO-B; conditions: rat brain mitochondrial fractions; cited from earlier work
# [13] = biological target: T1, MAO-B; experiment: Kinetics of MAO-B inhibition (Lineweaver-Burk and secondary plots); format: biochemical
# Procedure: as §5
# T3 sequence (O42275 24-633): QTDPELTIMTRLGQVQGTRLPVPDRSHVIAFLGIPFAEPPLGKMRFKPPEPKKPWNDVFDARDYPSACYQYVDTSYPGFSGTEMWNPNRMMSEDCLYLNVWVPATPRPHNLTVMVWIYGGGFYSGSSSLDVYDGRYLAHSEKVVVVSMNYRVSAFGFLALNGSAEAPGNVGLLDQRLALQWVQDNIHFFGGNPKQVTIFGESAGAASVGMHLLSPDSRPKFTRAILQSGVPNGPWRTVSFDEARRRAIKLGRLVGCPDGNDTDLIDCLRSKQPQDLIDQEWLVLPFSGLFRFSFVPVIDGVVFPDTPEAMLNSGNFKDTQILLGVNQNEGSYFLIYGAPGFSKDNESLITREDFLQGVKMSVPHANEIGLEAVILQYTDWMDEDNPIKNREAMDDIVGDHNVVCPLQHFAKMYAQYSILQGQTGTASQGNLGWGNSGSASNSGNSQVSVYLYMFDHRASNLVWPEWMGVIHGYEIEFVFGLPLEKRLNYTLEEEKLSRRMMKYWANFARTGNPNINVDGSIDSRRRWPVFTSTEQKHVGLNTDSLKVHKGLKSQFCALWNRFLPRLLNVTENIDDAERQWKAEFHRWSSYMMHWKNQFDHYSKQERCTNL
# AChE (Type VI-S from Electrophorus electricus), sequence (O42275 24-633): as above
# T4 sequence (P81908 whole entry): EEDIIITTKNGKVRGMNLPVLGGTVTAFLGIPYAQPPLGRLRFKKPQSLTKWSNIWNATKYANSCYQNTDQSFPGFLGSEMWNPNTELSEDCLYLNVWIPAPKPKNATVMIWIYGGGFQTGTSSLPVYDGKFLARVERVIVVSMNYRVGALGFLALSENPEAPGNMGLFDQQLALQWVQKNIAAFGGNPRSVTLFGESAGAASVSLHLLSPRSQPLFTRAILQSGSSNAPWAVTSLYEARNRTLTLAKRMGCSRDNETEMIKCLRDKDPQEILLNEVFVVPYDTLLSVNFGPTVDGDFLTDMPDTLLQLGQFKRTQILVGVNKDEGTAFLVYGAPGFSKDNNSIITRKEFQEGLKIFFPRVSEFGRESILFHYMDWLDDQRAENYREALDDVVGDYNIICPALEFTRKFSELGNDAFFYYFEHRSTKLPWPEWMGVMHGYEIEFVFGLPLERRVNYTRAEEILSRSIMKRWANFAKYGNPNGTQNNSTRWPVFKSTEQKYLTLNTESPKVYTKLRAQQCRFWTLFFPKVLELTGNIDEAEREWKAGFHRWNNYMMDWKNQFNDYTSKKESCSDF
# T2 sequence (P56817 46-457): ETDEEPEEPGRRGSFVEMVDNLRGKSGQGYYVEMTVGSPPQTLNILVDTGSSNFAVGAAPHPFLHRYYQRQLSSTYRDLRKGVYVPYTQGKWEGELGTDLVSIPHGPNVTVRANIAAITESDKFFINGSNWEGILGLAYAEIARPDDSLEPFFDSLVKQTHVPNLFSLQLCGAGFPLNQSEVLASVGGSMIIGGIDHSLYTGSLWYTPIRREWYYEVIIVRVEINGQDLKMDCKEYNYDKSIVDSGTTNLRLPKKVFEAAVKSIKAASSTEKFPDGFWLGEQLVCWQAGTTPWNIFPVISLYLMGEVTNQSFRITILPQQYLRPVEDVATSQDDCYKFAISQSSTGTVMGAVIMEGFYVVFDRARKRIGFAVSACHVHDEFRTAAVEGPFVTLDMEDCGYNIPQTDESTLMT
structure (smiles),measurement,setting,value
"O=c1oc2c(O)c(O)cc3c(=O)oc4c(O)c(O)cc1c4c23 [Compound 5, ellagic acid]",IC50,[1],133 µM
same,Reversibility of MAO-B inhibition,[2],reversible inhibitors
same,remaining activity at 10 µM,[3],59.1 ± 0.3%
same,Reversibility of AChE inhibition,[4],reversibly; also recorded: reversible inhibitors
same,IC50,[5],> 40 µM
same,remaining activity at 10 µM,[5]; read-out: Residual activity at 10 µM (%) BChE,96.9 ± 5.8%
same,IC50,[6],41.7 ± 2.4 µM
same,SI,[6]; IC50 for BChE divided by IC50 for AChE,> 1.0
same,remaining activity at 10 µM,[6]; read-out: Residual activity at 10 µM (%) AChE,81.5 ± 4.2%
same,IC50,[7],9.21 ± 0.16 µM
same,inhibition at 10 µM,[7]; 10 µM,> 50%
same,remaining activity at 10 µM,[7]; read-out: Residual activity at 10 µM (%) MAO-B,45.4 ± 4.1%
same,IC50,[8],> 40 µM
same,remaining activity at 10 µM,[8]; read-out: Residual activity at 10 µM (%) MAO-A,99.5 ± 0.7%
same,HL-60 cell viability,[9],negligible effects; also recorded: non-toxic or slightly toxic
same,MDCK cell viability,[10],slightly or non-toxic; also recorded: negligible effects; also recorded: non-toxic or slightly toxic
same,Ki,[11],9.43 ± 2.51 µM
same,Mode of AChE inhibition,[11]; LB plots,competitively; also recorded: competitive but partly mixed; also recorded: competitive but partially mixed
same,IC50,[12],0.412 µM
same,Ki,[13],7.51 ± 1.86 µM
same,Mode of MAO-B inhibition,[13]; LB plots,competitive
